Laboratory results published in ChEMBL document CHEMBL5532742, “Design and Synthesis of the Linezolid Bioisosteres to Resolve the Serotonergic Toxicity Associated with Linezolid” (ACS Med Chem Lett, 2024).
In brackets after ≈: the same amount, converted by molar mass. Several values for one entry are separate records, joined by “and”; a condition that tells them apart may be missing. Equal entries are not always repeated.

Assays:
[1] = target: T1, Amine oxidase [flavin-containing] B (Homo sapiens, UniProt P27338); test: Inhibition of human recombinant MAO-B using benzylamine as substrate; type: toxicity
T1 sequence (P27338 whole entry): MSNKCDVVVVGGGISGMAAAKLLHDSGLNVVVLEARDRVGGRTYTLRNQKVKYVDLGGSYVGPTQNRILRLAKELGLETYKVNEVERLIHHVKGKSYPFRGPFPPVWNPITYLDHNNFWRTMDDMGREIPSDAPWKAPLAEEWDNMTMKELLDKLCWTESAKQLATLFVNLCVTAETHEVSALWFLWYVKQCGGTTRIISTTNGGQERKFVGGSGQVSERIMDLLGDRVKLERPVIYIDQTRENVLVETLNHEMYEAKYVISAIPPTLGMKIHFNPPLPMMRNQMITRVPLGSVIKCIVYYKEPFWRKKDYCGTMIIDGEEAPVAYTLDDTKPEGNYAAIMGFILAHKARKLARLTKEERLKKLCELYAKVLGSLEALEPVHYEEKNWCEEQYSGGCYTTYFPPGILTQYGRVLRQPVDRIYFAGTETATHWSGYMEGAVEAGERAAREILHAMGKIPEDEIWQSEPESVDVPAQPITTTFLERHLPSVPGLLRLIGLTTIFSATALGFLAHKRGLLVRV

[2] = target: T2, Amine oxidase [flavin-containing] A (Homo sapiens, UniProt P21397); test: Inhibition of human recombinant MAO-A using kynuramine as substrate; type: toxicity
T2 sequence (P21397 whole entry): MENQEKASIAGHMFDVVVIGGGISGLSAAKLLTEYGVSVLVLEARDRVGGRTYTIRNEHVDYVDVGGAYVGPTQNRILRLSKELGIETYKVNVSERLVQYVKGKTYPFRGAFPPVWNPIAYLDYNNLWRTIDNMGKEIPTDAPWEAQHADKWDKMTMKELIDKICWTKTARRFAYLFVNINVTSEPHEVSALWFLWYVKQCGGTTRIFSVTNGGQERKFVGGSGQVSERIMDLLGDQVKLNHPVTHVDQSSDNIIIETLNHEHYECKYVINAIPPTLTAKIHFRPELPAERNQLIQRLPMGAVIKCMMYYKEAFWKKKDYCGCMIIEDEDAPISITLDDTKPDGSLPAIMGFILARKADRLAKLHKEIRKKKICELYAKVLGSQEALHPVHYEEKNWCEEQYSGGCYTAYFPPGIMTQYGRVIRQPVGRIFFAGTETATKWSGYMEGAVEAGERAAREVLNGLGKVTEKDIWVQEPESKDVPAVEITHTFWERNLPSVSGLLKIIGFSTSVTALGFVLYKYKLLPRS

[3] = system: Mycobacterium tuberculosis; test: Antimycobacterial activity against Mycobacterium tuberculosis H37Rv assessed as prevention of bacterial growth measured after 7 days by alamar blue assay; type: functional; settings: 168 h, time 7 day
[4] = system: Mycobacterium tuberculosis; test: Antimycobacterial activity against Mycobacterium tuberculosis clinical isolate without mutation incubated for 1 week by resazurin dye based fluorescence analysis; type: functional; settings: time 1 weeks
MAO-B = target: T3, MAO-B (Homo sapiens, UniProt P27338); test: Potency index, ratio of test compound IC50 to linezolid IC50 for inhibition of human recombinant MAO-B using benzylamine as substrate; type: toxicity; settings: probe benzylamine, read-out: Ratio IC50
T3 sequence (P27338 whole entry): T1 sequence (P27338 whole entry)

Staphylococcus aureus = test: Antibacterial activity against Staphylococcus aureus ATCC 25923; type: functional
[5] = target: T1, Amine oxidase [flavin-containing] B; test: Inhibition of human recombinant MAO-B using tyramine as substrate by ELISA; type: toxicity
[6] = target: T2, Amine oxidase [flavin-containing] A; test: Inhibition of human recombinant MAO-A using tyramine as substrate by ELISA; type: toxicity

CC(C)(C)c1ccc(S(=O)(=O)NC[C@H]2CN(c3ccc(N4CCOCC4)c(F)c3)C(=O)O2)cc1
IC50 [1]: 13.2 µM
IC50 [2]: 19.3 µM
MIC [3]: 1.58 µM and > 25 µg/mL

CCCCS(=O)(=O)NC[C@H]1CN(c2ccc(N3CCOCC3)c(F)c2)C(=O)O1
IC50 [1]: 25.4 µM
IC50 [2]: > 40 µM
MIC [3]: 1.87 µM and > 25 µg/mL

NNC(=O)c1ccncc1 [ISONIAZID]
MIC50 [4]: <0.2 µM

O=C1O[C@@H](CNS(=O)(=O)C2CC2)CN1c1ccc(N2CCOCC2)c(F)c1
IC50 [1]: 11.4 µM
IC50 [2]: > 40 µM
MIC [3]: 1.95 µM and > 25 µg/mL

CC(=O)NC[C@H]1CN(c2ccc(N3CCOCC3)c(F)c2)C(=O)O1 [LINEZOLID]
MIC50 [4]: 0.34 µM (≈ 0.115 µg/mL)
MIC [3]: 2.31 µM (≈ 0.779 µg/mL)

O=C(NC[C@H]1CN(c2ccc(N3CCOCC3)c(F)c2)C(=O)O1)C1CC1
MIC50 [4]: 1.11 µM (≈ 0.403 µg/mL)
IC50 [1]: 30.3 µM
IC50 [2]: > 40 µM
MIC [3]: 2.08 µM (≈ 0.756 µg/mL)

CCS(=O)(=O)NC[C@H]1CN(c2ccc(N3CCOCC3)c(F)c2)C(=O)O1
MIC50 [4]: 0.74 µM (≈ 0.287 µg/mL)
IC50 [1]: > 40 µM
IC50 [2]: > 40 µM
MIC [3]: 2.01 µM (≈ 0.779 µg/mL)
selectivity ratio (MAO-B): 64.6

O=C1O[C@@H](CNS(=O)(=O)c2cccs2)CN1c1ccc(N2CCOCC2)c(F)c1
MIC50 [4]: 4.01 µM (≈ 1.77 µg/mL)
IC50 [1]: 27.3 µM
IC50 [2]: > 40 µM
MIC [3]: 1.76 µM (≈ 0.777 µg/mL)

CO[C@H]1/C=C/O[C@@]2(C)Oc3c(C)c(O)c4c(O)c(c(/C=N/N5CCN(C)CC5)c(O)c4c3C2=O)NC(=O)/C(C)=C\C=C\[C@H](C)[C@H](O)[C@@H](C)[C@@H](O)[C@@H](C)[C@H](OC(C)=O)[C@@H]1C [RIFAMPIN]
MIC50 [4]: <0.04 µM

O=C1O[C@H](Cn2ccnn2)CN1c1ccc(N2CCOCC2)c(F)c1
MIC (Staphylococcus aureus): 1 µg/mL (≈ 2.88 µM)
IC50 [5]: 15.4 µM
IC50 [6]: 31.9 µM

CS(=O)(=O)NC[C@H]1CN(c2ccc(N3CCOCC3)c(F)c2)C(=O)O1
MIC50 [4]: 1.11 µM (≈ 0.414 µg/mL)
IC50 [1]: 2.95 µM
IC50 [2]: > 40 µM
MIC [3]: 2.14 µM (≈ 0.799 µg/mL)

O=C(NC[C@H]1CN(c2ccc(N3CCOCC3)c(F)c2)C(=O)O1)c1cccs1
MIC50 [4]: 3.12 µM (≈ 1.27 µg/mL)
IC50 [1]: 33.1 µM
IC50 [2]: > 40 µM
MIC [3]: 1.92 µM (≈ 0.778 µg/mL)
